The source of these data is US9962388B2, “Pyrrolopyrimidine compounds used as TLR7 agonist” (priority 2014, dated 2018).

The term EC50 denotes the concentration needed to bring the measured effect to its halfway point.

For this assay, the target named is Toll-like receptor 7 (Homo sapiens (Human), UniProt Q9NYK1). Briefly: Toll-like receptor 7 in vitro receptor binding activity screen (HEK-blue hTLR7 cell, alkaline phosphatase/Quanti-Blue readout). Format: cell-based. The following applies: HEK-blue hTLR7 cell, 24 h; read-out: TLR7 EC50. As for the experimental part: Toll-Like Receptor 7 and Toll-Like Receptor 8 In Vitro Receptor Binding Activity Screen
HEK-blue hTLR7 cell and HEK-blue hTLR8 cell (available from InvivoGen)
1. Preparation of 96-well compound plate:
The compounds were gradient diluted with DMSO in 3-fold using liquid work station POD starting at a concentration of 10 mmol/L and 10 points were diluted (2nd column to 11th column, and each point was duplicated). At 12th column, 1 μL of 5 mg/mL positive compound R848 was added as positive control; and at 1st column, 1 μL of DMSO was added as negative control. Each well contained 1 μL of DMSO.
2. The cells in culture flask were collected and the cell density was diluted to 250,000 cells/mL.
3. 200 μL (50,000 cells/well) of cell suspension was added into prepared compound plate and the final concentration of DMSO in each well was 0.5%.
4. The culture plates containing cells and the compounds were incubated in CO2 incubator for 24 h at 37° C., 5% CO2.
5. After 24 h incubation, 20 μL of supernatant was removed from each well to a 96-well transparent assay plate. To each well of the assay plate was added 180 μL of Quanti-Blue reagent and the plate was incubated in an incubator at 37° C., 5% CO2 for 1 h.
6. After 1 h, the content of alkaline phosphatase in 20 μL of supernatant was determined using Microplate Reader OD650.
7. EC50 of each compound was obtained with Prism software.

Chain of Toll-like receptor 7 (Q9NYK1 27-1049): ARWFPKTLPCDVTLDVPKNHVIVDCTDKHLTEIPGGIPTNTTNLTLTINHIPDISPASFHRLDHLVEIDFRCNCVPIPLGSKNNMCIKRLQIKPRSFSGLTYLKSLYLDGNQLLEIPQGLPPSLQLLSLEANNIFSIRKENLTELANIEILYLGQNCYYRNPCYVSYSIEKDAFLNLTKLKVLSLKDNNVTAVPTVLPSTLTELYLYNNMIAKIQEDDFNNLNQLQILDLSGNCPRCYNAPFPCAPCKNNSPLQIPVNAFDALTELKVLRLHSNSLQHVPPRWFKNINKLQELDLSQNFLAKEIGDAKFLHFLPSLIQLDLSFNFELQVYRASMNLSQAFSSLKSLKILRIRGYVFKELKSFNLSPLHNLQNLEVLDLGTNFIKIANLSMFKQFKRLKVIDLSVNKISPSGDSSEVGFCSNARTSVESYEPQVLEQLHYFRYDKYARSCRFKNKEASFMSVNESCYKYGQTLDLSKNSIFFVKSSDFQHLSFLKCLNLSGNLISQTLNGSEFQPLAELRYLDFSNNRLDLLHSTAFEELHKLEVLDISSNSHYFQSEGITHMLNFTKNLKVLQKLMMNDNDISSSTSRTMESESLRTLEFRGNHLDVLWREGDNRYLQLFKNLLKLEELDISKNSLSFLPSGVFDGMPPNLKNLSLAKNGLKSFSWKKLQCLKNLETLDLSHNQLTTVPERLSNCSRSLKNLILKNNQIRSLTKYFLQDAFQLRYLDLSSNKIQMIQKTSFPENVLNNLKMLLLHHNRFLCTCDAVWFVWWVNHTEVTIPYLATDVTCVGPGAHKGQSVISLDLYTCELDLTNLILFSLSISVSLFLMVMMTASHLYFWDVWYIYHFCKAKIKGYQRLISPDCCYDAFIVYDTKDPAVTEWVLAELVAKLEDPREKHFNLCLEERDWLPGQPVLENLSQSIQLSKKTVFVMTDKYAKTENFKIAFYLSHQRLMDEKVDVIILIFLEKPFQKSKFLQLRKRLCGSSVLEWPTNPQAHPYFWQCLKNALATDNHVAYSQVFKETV

Regarding `CCCCOc1nc(N)c2[nH]cc(Cc3cccc(CN4CCN(C)CC4)c3)c2n1` [Example 1, 2-butoxy-7-(3-((4-methylpiperazine-1-yl)methyl)benzyl)-5H-pyrrolo[3,2-d]pyrimidine-4-amine], the EC50 was in the range of 1 to 50 µM.
For `CCCCOc1nc(N)c2[nH]cc(Cc3cccc(CN4CCOCC4)c3)c2n1` [Example 2, 2-butoxy-7-(3-(morpholinomethyl)benzyl)-5H-pyrrolo[3,2-d]pyrimidine-4-amine] the value was 1 to 50 µM.
On to `CCCCOc1nc(N)c2[nH]cc(Cc3cccc(CN)c3)c2n1` [Example 3, 7-(3-(aminomethyl)benzyl)-2-butoxy-5H-pyrrolo[3,2-d]pyrimidine-4-amine], for which the EC50 lay in the range of 1 to 50 µM.
In the case of `CCCCOc1nc(N)c2[nH]cc(Cc3ccc(CN4CCC(F)(F)C4)cc3)c2n1` [Example 5] it was 1 to 50 µM.
On to `CCCCOc1nc(N)c2[nH]cc(Cc3ccc(CN4CCC(F)C4)cc3)c2n1` (centres unmarked) [Example 6, 2-butoxy-7-(4-((3-fluoropyrrolidine-1-yl)methyl)benzyl)-5H-pyrrolo[3,2-d]pyrimidine-4-amine], for which the EC50 lay in the range of 0.1 to 1 µM.
In the case of `CCCCOc1nc(N)c2[nH]cc(Cc3ccc(CN4CCC(O)C4)cc3)c2n1` (centres unmarked) [Example 7, 1-(4-((4-amino-2-butoxy-5H-pyrrolo[3,2-d]pyrimidine-7-1)methyl)benzyl)pyrrolidine-3-ol], the EC50 fell in the range of 0.1 to 1 µM.
On to `CCCCOc1nc(N)c2[nH]cc(Cc3ccc(CN4CCCCC4)cc3)c2n1` [Example 8, 2-butoxy-7-(4-(piperidine-1-ylmethyl)benzyl)-5H-pyrrolo[3,2-d]pyrimidine-4-amine], for which the EC50 was in the range of 0.1 to 1 µM.
On to `CCCCOc1nc(N)c2[nH]cc(Cc3ccc(CN4CCOCC4)cc3)c2n1` [Example 9, 2-butoxy-7-(4-(morpholinomethyl)benzyl)-5H-pyrrolo[3,2-d]pyrimidine-4-amine], for which the EC50 was 1 to 50 µM.
Take `CCCCOc1nc(N)c2[nH]cc(Cc3ccc(CN4CCN(C)CC4)cc3)c2n1` [Example 10, 2-butoxy-7-(4-((4-methylpiperazine-1-yl)methyl)benzyl)-5H-pyrrolo[3,2-d]pyrimidine-4-amine]: the EC50 was 1 to 50 µM.
Turning to `CCCCOc1nc(N)c2[nH]cc(Cc3ccc(CN(C)C)cc3)c2n1` [Example 11, 2-butoxy-7-(4-((dimethylamino)methyl)benzyl)-5H-pyrrolo[3,2-d]pyrimidine-4-amine], the EC50 is 0.1 to 1 µM.
In the case of `CCCCOc1nc(N)c2[nH]cc(Cc3ccc(CN(CC)CC)cc3)c2n1` [Example 12, 2-butoxy-7-(4-((diethylamino)methyl)benzyl)-5H-pyrrolo[3,2-d]pyrimidine-4-amine] it was 0.1 to 1 µM.
In the case of `CCCCOc1nc(N)c2[nH]cc(Cc3ccc(CN(CCC)CCC)cc3)c2n1` [Example 13, 2-butoxy-7-(4-((dipropylamino)methyl)benzyl)-5H-pyrrolo[3,2-d]pyrimidine-4-amine] it was 0.1 to 1 µM; in that of `CCCCOc1nc(N)c2[nH]cc(Cc3ccc(CN4CCC4)cc3)c2n1` [Example 14, 7-(4-(azetidin-1-ylmethyl)benzyl)-2-butoxy-5H-pyrrolo[3,2-d]pyrimidine-4-amine], 0.1 to 1 µM.
With `CCCCOc1nc(N)c2[nH]cc(Cc3ccc(CN4CC(OC)C4)cc3)c2n1` [Example 15, 2-butoxy-7-(4-((3-methoxylazetidin-1-yl)methyl)benzyl)-5H-pyrrolo[3,2-d]pyrimidine-4-amine], the EC50 is 0.1 to 1 µM.
Regarding `CCCCOc1nc(N)c2[nH]cc(Cc3ccc(CN4CCCN(C)CC4)cc3)c2n1` [Example 16, 2-butoxy-7-(4-((4-methyl-1,4-diazepan-1-yl)methyl)benzyl)-5H-pyrrolo[3,2-d]pyrimidine-4-amine], the 50% effective concentration (EC50) is 0.1 to 1 µM.
For `CCCCOc1nc(N)c2[nH]cc(Cc3ccc(CN4CC(C)OC(C)C4)cc3)c2n1` (centres unmarked) [Example 17, 2-butoxy-7-(4-((2,6-dimethylmorpholinyl)methyl)benzyl)-5H-pyrrolo[3,2-d]pyrimidine-4-amine] the value was 0.1 to 1 µM; for `CCCCOc1nc(N)c2[nH]cc(Cc3ccc(CN4C[C@@H]5C[C@H]4CO5)cc3)c2n1` [Example 18, 7-(4-((1 S,4S)-2-oxa-5-azabicyclo[2.2.1]heptane-5-ylmethyl)benzyl)-2-butoxy-5H-pyrrolo[3,2-d]pyrimidine-4-amine], 0.1 to 1 µM; for `CCCCOc1nc(N)c2[nH]cc(Cc3ccc(CN4CCC(OC)CC4)cc3)c2n1` [Example 19, 2-butoxy-7-(4-((4-methoxylpiperidine-1-yl)methyl)benzyl)-5H-pyrrolo[3,2-d]pyrimidine-4-amine], 0.1 to 1 µM.
For `CCCCOc1nc(N)c2[nH]cc(Cc3ccc(CN4CCN(C(C)C)CC4)cc3)c2n1` [Example 20, 2-butoxy-7-(4-((4-isopropylpiperazine-1-yl)methyl)benzyl)-5H-pyrrolo[3,2-d]pyrimidine-4-amine] the value was 0.1 to 1 µM.
On to `CCCCOc1nc(N)c2[nH]cc(Cc3cccc(CCN4CCCC4)c3)c2n1` [Example 23, 2-butoxy-7-(3-(2-(pyrrolidine-1-yl)ethyl)benzyl)-5H-pyrrolo[3,2-d]pyrimidine-4-amine], for which the EC50 lay in the range of 1 to 50 µM.
For the compound `CCCCOc1nc(N)c2[nH]cc(Cc3ccc(C(C)N4CCCC4)cc3)c2n1` (centres unmarked) [Example 24, 2-butoxy-7-(4-(1-(pyrrolidine-1-yl)ethyl)benzyl)-5H-pyrrolo[3,2-d]pyrimidine-4-amine], the EC50 lay in the range of 0.1 to 1 µM.
`CCCCOc1nc(N)c2[nH]cc(Cc3ccc(C4CCN(C)CC4)cc3)c2n1` [Example 25, 2-butoxy-7-(4-(1-methylpiperidine-4-yl)benzyl)-5H-pyrrolo[3,2-d]pyrimidine-4-amine]: the EC50 lay within 0.001 to 0.1 µM.
In the case of `CCCCOc1nc(N)c2[nH]cc(Cc3ccc(C4CCCN4C)cc3)c2n1` (centres unmarked) [Example 26, 2-butoxy-7-(4-(1-methylpyrrolidine-2-yl)benzyl)-5H-pyrrolo[3,2-d]pyrimidine-4-amine] it was 0.1 to 1 µM; in that of `CCCCOc1nc(N)c2[nH]cc(Cc3ccc(N4CCN(C)CC4=O)cc3)c2n1` [Example 27, 1-(4-((4-amino-2-butoxy-5H-pyrrolo[3,2-d]pyrimidine-7-yl)methyl)phenyl)-4-methylpiperazine-2-one], 0.1 to 1 µM; in that of `CCCCOc1nc(N)c2[nH]cc(Cc3ccc4c(c3)CCNC4)c2n1` [Example 32, 2-butoxy-7-((1,2,3,4-tetrahydroisoquinoline-6-yl)methyl)-5H-pyrrolo[3,2-d]pyrimidine-4-amine], 0.1 to 1 µM.
In the case of `CCCCOc1nc(N)c2[nH]cc(Cc3ccc4c(c3)CCN(C)C4)c2n1` [Example 33, 2-butoxy-7-((2-methyl-1,2,3,4-tetrahydroisoquinoline-6-yl)methyl)-5H-pyrrolo[3,2-d]pyrimidine-4-amine] it was 0.1 to 1 µM; in that of `CCCCOc1nc(N)c2[nH]cc(Cc3ccc4c(c3)CCN(CC)C4)c2n1` [Example 34, 2-butoxy-7-((2-ethyl-1,2,3,4-tetrahydroisoquinoline-6-yl)methyl)-5H-pyrrolo[3,2-d]pyrimidine-4-amine], 0.1 to 1 µM; in that of `COCCOc1nc(N)c2[nH]cc(Cc3ccccc3)c2n1` [Example 35, 7-benzyl-2-(2-methoxylethoxyl)-5H-pyrrolo[3,2-d]pyrimidine-4-amine], 1 to 50 µM.
Turning to `COCCOc1nc(N)c2[nH]cc(Cc3ccc(C)nc3)c2n1` [Example 36, 2-(2-methoxylethoxyl)-7-((6-methylpyridine-3-yl)methyl)-5H-pyrrolo[3,2-d]pyrimidine-4-amine], the EC50 was in the range of 1 to 50 µM.
